By IC50 is commonly meant the point on the concentration scale where inhibition reaches its midpoint.

We go through 20 compounds from patent publication US12084458B2, “Substituted pyridines, pyridazines, and pyrimidines as TYK2 inhibitors” (Sudo Biosciences Limited, priority 2021, dated 2024).

Holding throughout (assay type): cell-based
Assay [1] relates to HEK-Blue IL-23 cells (IL-23-stimulated STAT3 SEAP reporter; TYK2 JH2). Description: HEK-Blue IL-23 SEAP reporter assay for profiling TYK2 pseudokinase (JH2) inhibition. To be noted: 10 ng/mL human recombinant IL-23, SEAP reporter, read-out: IL23 (TYK2 inhibitory activity, IC50). Here is the method: (§1) Example B-1: HEK-Blue™ IL-23 and IFNα/β Reporter Assays for Profiling TYK2 Pseudokinase (JH2) Inhibition
(§2) HEK-Blue™ IL-23 and IFNα/β cells with a stably-integrated cytokine receptor and STAT3 or STAT1 express STAT-inducible secreted embryonic alkaline phosphatase (SEAP) reporter gene upon cytokine stimulation. These cells are plated in DMEM (Gibco) containing 10% heat-inactivated FBS (Gibco) and 100 U/mL PenStrep (Gibco) at 37° C. under 5% CO2 conditions for 20-22 hours. The cells are then pretreated with serially diluted test compounds for 60 min prior to stimulation with either 10 ng/mL human recombinant IL-23 (Miltenyl Biotech) or 1 ng/mL human recombinant IFNα (InvivoGen) for 22-24 hours for IL-23 or 16-18 h for IFNα. SEAP induction is measured using the QUANTI Blue™ Solution (InvivoGen) according to the manufacturer's instructions.
In general terms: In a reporter assay the amount or activity of a reporter protein is the signal.

Assay [2] relates to HEK-Blue IL-2 reporter cells (IL-2-stimulated STAT5 SEAP reporter). As to the kind of experiment: HEK-Blue IL-2 SEAP reporter assay for determining selectivity. To be noted: 4 ng/mL human recombinant IL-2. As for the experimental part:
(§3) Example B-3: HEK-Blue™ IL-2 and IFNγ Reporter Assays for Determining Selectivity
(§4) HEK-Blue™ IL-2 and IFNγ reporter cells with a stably-integrated cytokine receptor and STAT5 or STAT1 express STAT-inducible secreted embryonic alkaline phosphatase (SEAP) reporter gene upon cytokine stimulation. These cells were plated in DMEM (Gibco) containing 10% heat-inactivated FBS (Gibco) and 100 U/mL PenStrep (Gibco) at 37° C. under 5% CO2 conditions for 20-22 hours. The cells were then pretreated with serially diluted test compounds for 60 min prior to stimulation with either 4 ng/mL human recombinant IL-2 (Miltenyl Biotech) or 50 ng/mL human recombinant IFNγ (InvivoGen) for 24 hours. SEAP induction was measured using the QUANTI-Blue™ Solution (InvivoGen) according to the manufacturer's instructions.

Assay [3] has as its system HEK-Blue IFNγ reporter cells (IFNγ-stimulated STAT1 SEAP reporter). As to the kind of experiment: HEK-Blue IFNγ SEAP reporter assay for determining selectivity. To be noted: Homo sapiens, HEK-Blue, 50 ng/mL human recombinant IFNγ, read-out: IFN-γ (SEAP selectivity, IC50). As for the experimental part:
as §3, §4

Assay [4] deals with HEK-Blue IFNα/β cells (IFNα-stimulated STAT1 SEAP reporter; TYK2 JH2). Description: HEK-Blue IFNα/β SEAP reporter assay for profiling TYK2 pseudokinase (JH2) inhibition. Also on record: IFNα (TYK2 inhibitory activity, IC50): scale not given here. To be noted: 1 ng/mL human recombinant IFNα; for IC50: Homo sapiens, HEK-Blue, read-out: IFNα (TYK2 inhibitory activity, IC50). Here is the method: as §1, §2

A value given as a limit tells only on which side of the number the result lay.

On to `[2H]C([2H])([2H])NC(=O)c1nnc(NC(=O)C2CC2)cc1Nc1cccc2c1N(C)[C@@H](C)c1nc(C)nn1-2` (single isomer, unassigned) [Compound 22], for which the IC50 in assay [1] was under 30 nM; in assay [2] it was over 1000 nM; in assay [3], 300 to 1000 nM; in assay [4], under 30 nM.

On to `[2H]C([2H])([2H])NC(=O)c1cnc(NC(=O)C2CC2)cc1Nc1cccc2c1N(C)[C@@H](C)c1nc(C)nn1-2` (single isomer, unassigned) [Compound 25], for which the half-inhibitory concentration (IC50) in assay [1] was under 30 nM; in assay [2], over 1000 nM; in assay [3] it was over 1000 nM; in assay [4], under 30 nM.

Take `[2H]C([2H])([2H])NC(=O)c1cnc(NC(=O)NC)cc1Nc1cccc2c1N(C)[C@@H](C)c1nn(C)nc1-2` (single isomer, unassigned) [Compound 55]: the IC50 in assay [1] was under 30 nM; in assay [2], over 1000 nM; in assay [3], over 1000 nM; in assay [4], under 30 nM.

`[2H]C([2H])([2H])NC(=O)c1cnc(NC(=O)NC)cc1Nc1cccc2c1N(C)[C@H](C)c1nn(C)nc1-2` (single isomer, unassigned) [Compound 56]: the IC50 in assay [1] was 30 to 300 nM; in assay [2], over 1000 nM; in assay [3], over 1000 nM; in assay [4] it was over 1000 nM.

With `[2H]C([2H])([2H])NC(=O)c1cnc(NC(=O)C2CC2)cc1Nc1cccc2c1N(C)[C@@H](C)c1nn(C)nc1-2` (single isomer, unassigned) [Compound 57], the IC50 is under 30 nM in assay [1], over 1000 nM in assay [2], over 1000 nM in assay [3] and under 30 nM in assay [4].

In the case of `[2H]C([2H])([2H])NC(=O)c1nnc(NC(=O)C2CC2)cc1Nc1cccc2c1N(C)[C@@H](C)c1nn(C)nc1-2` (single isomer, unassigned) [Compound 60], the IC50 was under 30 nM in assay [1], over 1000 nM in assay [2], over 1000 nM in assay [3] and under 30 nM in assay [4].

For the compound `[2H]C([2H])([2H])NC(=O)c1cnc(Nc2ccc(F)cn2)cc1Nc1cccc2c1N(C)Cc1nc(C)nn1-2` [Compound 27, 4-((2,5-dimethyl-4,5-dihydro-[1,2,4]triazolo[1,5-a]quinoxalin-6-yl)amino)-6-((5-fluoropyridin-2-yl)amino)-N-(methyl-d3)nicotinamide], the 50% inhibitory concentration (IC50) was under 30 nM in assay [1], over 1000 nM in assay [2] and 300 to 1000 nM in assay [3].

As for `[2H]C([2H])([2H])NC(=O)c1cnc(NC(=O)N(C)C)cc1Nc1cccc2c1N(C)Cc1nn(C)nc1-2` [Compound 51, 4-((2,5-dimethyl-4,5-dihydro-2H-[1,2,3]triazolo[4,5-c]quinolin-6-yl)amino)-6-(3,3-dimethylureido)-N-(methyl-d3)nicotinamide], the 50% inhibitory concentration (IC50) in assay [1] was under 30 nM; in assay [2], over 1000 nM.

Regarding `[2H]C([2H])([2H])NC(=O)Nc1cc(Nc2cccc3c2N(C)Cc2nn(C)nc2-3)c(C(=O)NC([2H])([2H])[2H])cn1` [Compound 67, 4-((2,5-dimethyl-4,5-dihydro-2H-[1,2,3]triazolo[4,5-c]quinolin-6-yl)amino)-N-(methyl-d3)-6-(3-(methyl-d3)ureido)nicotinamide], the IC50 is under 30 nM in assay [1], over 1000 nM in assay [2] and under 30 nM in assay [4].

For `[2H]C([2H])([2H])NC(=O)c1nnc(N2CCN(C(C)C)C2=O)cc1Nc1cccc2c1N(C)Cc1nc(C)nn1-2` [Compound 81, 4-((2,5-dimethyl-4,5-dihydro-[1,2,4]triazolo[1,5-a]quinoxalin-6-yl)amino)-6-(3-isopropyl-2-oxoimidazolidin-1-yl)-N-(methyl-d3)pyridazine-3-carboxamide], the IC50 in assay [1] was in the range of 30 to 300 nM. For the same compound, the “IFNα (TYK2 inhibitory activity, IC50)” value in assay [4] is listed as “C/D”.

For `[2H]C([2H])([2H])NC(=O)c1cnc(N(C)C(=O)C2CC2)cc1Nc1cccc2c1N(C)Cc1nc(C)nn1-2` [Compound 82, 4-((2,5-dimethyl-4,5-dihydro-[1,2,4]triazolo[1,5-a]quinoxalin-6-yl)amino)-N-(methyl-d3)-6-(N-methylcyclopropanecarboxamido)nicotinamide], the IC50 in assay [1] and in assay [4] was over 1000 nM in each case.

Consider `[2H]C([2H])([2H])NC(=O)c1cnc(NC(=O)C2CC2)cc1Nc1ccnc2c1N(C)Cc1nc(C)nn1-2` [Compound 86, 6-(cyclopropanecarboxamido)-4-((2,5-dimethyl-4,5-dihydropyrido[3,2-e][1,2,4]triazolo[1,5-a]pyrazin-6-yl)amino)-N-(methyl-d3)nicotinamide], for which the IC50 in assay [1] was in the range of 30 to 300 nM; in assay [4] it was 300 to 1000 nM.

Take `[2H]C([2H])([2H])NC(=O)c1nnc(NC(=O)C2CC2)cc1Nc1ccnc2c1N(C)Cc1nc(C)nn1-2` [Compound 87, 6-(cyclopropanecarboxamido)-4-((2,5-dimethyl-4,5-dihydropyrido[3,2-e][1,2,4]triazolo[1,5-a]pyrazin-6-yl)amino)-N-(methyl-d3)pyridazine-3-carboxamide]: the IC50 in assay [1] lay in the range of 30 to 300 nM; in assay [4], 300 to 1000 nM.

Consider `[2H]C([2H])([2H])NC(=O)c1nnc(NC(=O)C2CC2)cc1Nc1c(F)ccc2c1N(C)Cc1nc(C)nn1-2` [Compound 98, 6-(cyclopropanecarboxamido)-4-((7-fluoro-2,5-dimethyl-4,5-dihydro-[1,2,4]triazolo[1,5-a]quinoxalin-6-yl)amino)-N-(methyl-d3)pyridazine-3-carboxamide], for which the half-inhibitory concentration (IC50) in assay [1] was 30 to 300 nM. Further, the “IFNα (TYK2 inhibitory activity, IC50)” value in assay [4] was “C/D”.

For the compound `[2H]C([2H])([2H])NC(=O)c1nnc(NC(=O)NC)cc1Nc1cc(F)cc2c1N(C)Cc1nc(C)nn1-2` [Compound 103, 4-((8-fluoro-2,5-dimethyl-4,5-dihydro-[1,2,4]triazolo[1,5-a]quinoxalin-6-yl)amino)-N-(methyl-d3)-6-(3-methylureido)pyridazine-3-carboxamide], the half-maximal inhibitory concentration (IC50) in assay [1] and in assay [4] was 30 to 300 nM each time.

For the compound `[2H]C([2H])([2H])NC(=O)c1nnc(NC(=O)C2CC2)cc1Nc1nccc2c1N(C)[C@@H](C)c1nc(C)nn1-2` [Compound 112, (S)-6-(cyclopropanecarboxamido)-N-(methyl-d3)-4-((2,4,5-trimethyl-4,5-dihydropyrido[3,4-e][1,2,4]triazolo[1,5-a]pyrazin-6-yl)amino)pyridazine-3-carboxamide], the IC50 in assay [1] is under 30 nM; in assay [4], 30 to 300 nM.

For `[2H]C([2H])([2H])NC(=O)c1nnc(NC(=O)C2CC2)cc1Nc1nccc2c1N(C)[C@@H](C([2H])([2H])[2H])c1nn(C)nc1-2` [Compound 113, (S)-6-(cyclopropanecarboxamido)-4-((2,5-dimethyl-4-(methyl-d3)-4,5-dihydro-2H-[1,2,3]triazolo[4,5-c][1,7]naphthyridin-6-yl)amino)-N-(methyl-d3)pyridazine-3-carboxamide], the IC50 in assay [1] and in assay [4] was 30 to 300 nM each time.

As to `[2H]C([2H])([2H])NC(=O)c1nnc(NC(=O)C2CC2)cc1Nc1nccc2c1N(C)[C@H](C([2H])([2H])[2H])c1nn(C)nc1-2` [Compound 114, (R)-6-(cyclopropanecarboxamido)-4-((2,5-dimethyl-4-(methyl-d3)-4,5-dihydro-2H-[1,2,3]triazolo[4,5-c][1,7]naphthyridin-6-yl)amino)-N-(methyl-d3)pyridazine-3-carboxamide], the IC50 in assay [1] and in assay [4] was under 30 nM throughout.

As for `[2H]C([2H])([2H])NC(=O)c1nnc(NC(=O)[C@H]2C[C@H]2F)cc1Nc1nccc2c1N(C)Cc1nn(C)nc1-2` [Compound 115, 4-((2,5-dimethyl-4,5-dihydro-2H-[1,2,3]triazolo[4,5-c][1,7]naphthyridin-6-yl)amino)-6-((1R,2R)-2-fluorocyclopropane-1-carboxamido)-N-(methyl-d3)pyridazine-3-carboxamide], the IC50 in assay [1] and in assay [4] was under 30 nM in each case.

On to `[2H]C([2H])([2H])NC(=O)c1nnc(NC(=O)[C@@H]2C[C@@H]2F)cc1Nc1nccc2c1N(C)Cc1nn(C)nc1-2` [Compound 116, 4-((2,5-dimethyl-4,5-dihydro-2H-[1,2,3]triazolo[4,5-c][1,7]naphthyridin-6-yl)amino)-6-((1S,2S)-2-fluorocyclopropane-1-carboxamido)-N-(methyl-d3)pyridazine-3-carboxamide], for which the figures for the IC50 in assay [1] and in assay [4] were 30 to 300 nM and 300 to 1000 nM, respectively.
